The values that follow come from patent US20070219174A1, “METHODS OF TREATING CANCER USING HYPOFRACTIONATED RADIATION AND TEXAPHYRINS” (Pharmacyclics, Inc., priority 2006, published 2007).

Data set [1] has as its system tumors. The note with it: clinical results, magnetic resonance imaging; cited from earlier work.
Data set [2] deals with brain metastases. The note with it: clinical results, MRI long after administration; cited from earlier work.
Data set [3] relates to tumors. The following applies: cited from earlier work.
The subject of data set [4] is brain metastases from solid tumors. The note with it: patients with brain metastases from solid tumors receiving WBRT; cited from earlier work.
For data set [5], the system named is brain metastases. The data set can be described thus: MRI of brain metastases after MGd (FIG. 1A, 1B). The class given is in vivo, human. An excerpt: In particular, sections 20, 21, and 22 on the right panel (MGd+standard contrast) show brain metastases not visible in sections 20, 21, and 22 on the left panel (standard Gd contrast).

Turning to `CC(=O)[O-].CC(=O)[O-].CCc1c(CC)c2cc3nc(cnc4cc(OCCOCCOCCOC)c(OCCOCCOCCOC)cc4ncc4nc(cc1[n-]2)C(CCCO)=C4C)C(C)=C3CCCO.O.[Gd+3]` [Gd-Tex, Gadolinium Texaphyrin], the biolocalization in tumors entry in the data set on tumors [1] is recorded as “selective biolocolization in tumors”. For the same compound, the “tumor selectivity, depiction of brain metastases at MRI” value with brain metastases [2] is “tumor selective”.
`CC(=O)[O-].CC(=O)[O-].CCc1c(CC)c2cc3nc(cnc4cc(OCCOCCOCCOC)c(OCCOCCOCCOC)cc4ncc4nc(cc1[n-]2)C(CCCO)=C4C)C(C)=C3CCCO.O.[Gd+3]` [MGd, motexafin gadolinium]: in the data set on tumors [3] (clinical results), the accumulation in tumors result was “selectively accumulated in tumors” and the well tolerated dose result was “up to 6.3 mg/kg”. Moreover, the radiologic response rate result in the data set with tumors [3] (combined with WBRT of 30 Gy in 10 fractions) is “high radiologic response rate”. Further, the “neurological progression incl. neurologic and neurocognitive function” value in data set [4] is recorded as “provides benefit to patient's neurological progression”. For the same compound, the “MRI enhancement of brain metastases versus standard Gd contrast” value in the data set on brain metastases [5] (FIG. 1A, MGd+standard contrast vs standard Gd contrast) was “enhances brain metastases not visible with standard Gd contrast”. In the data set on brain metastases [5] (FIG. 1B, brain metastases from NSCLC, post MGd without contrast), the “localization in brain metastases on MRI” value is listed as “localization in brain metastases from NSCLC”.
